Test results as given in ChEMBL document CHEMBL5344478, “Cytochrome bd oxidase: an emerging anti-tubercular drug target” (RSC Med Chem, 2024).
Converted amounts (≈) assume the structure as drawn.

Columns and labels:
[1] = test system: Mycobacterium tuberculosis; assay: Antibacterial activity against Mycobacterium tuberculosis clinical isolate N0145 assessed as reduction in ATP level; assay type: functional, organism-based
[2] = test system: Mycobacterium tuberculosis; assay: Inhibition of wild type Mycobacterium tuberculosis mc2 6020 cytochrome bd oxidase assessed as inhibition of oxygen consumption rate at 10 to 25 uM measured after 5 days by Methylene blue dye based assay; details: dose 10-25 µM, time 5.0 day
[3] = test system: Mycobacterium tuberculosis; assay: Antitubercular activity against Mycobacterium tuberculosis H37Rv assessed as inhibition of bacterial growth; assay type: functional
[4] = Oral bioavailability in mouse; assay type: ADME, organism-based; details: in vivo
[5] = test system: Mycobacterium tuberculosis; assay: Antibacterial activity against Mycobacterium tuberculosis H37Rv cytochrome bd oxidase assessed as reduction in total cellular ATP level; assay type: functional, organism-based
[6] = test system: Mycobacterium tuberculosis; assay: Antitubercular activity against XDR Mycobacterium tuberculosis assessed as bacterial growth inhibition; assay type: functional
[7] = Half life in mouse; assay type: ADME, organism-based; details: in vivo
[8] = test system: Mycobacterium tuberculosis; assay: Antibacterial activity against Mycobacterium tuberculosis H37Rv assessed as reduction in bacterial growth; assay type: functional, organism-based
[9] = test system: Mycobacterium tuberculosis; assay: Antibacterial activity against Mycobacterium tuberculosis clinical isolate N0145 assessed as reduction in bacterial growth; assay type: functional, organism-based
[10] = test system: Mycobacterium tuberculosis; assay: Antibacterial activity against Mycobacterium tuberculosis H37Rv assessed as inhibition of bacterial growth; assay type: functional
[11] = test system: Mycobacterium tuberculosis; assay: Antibacterial activity against Mycobacterium tuberculosis H37Rv assessed as reduction in bacterial growth incubated for 7 days by broth dilution method; assay type: functional; details: 168 h, time 7 day
[12] = test system: Mycobacterium tuberculosis; assay: Antibacterial activity against Mycobacterium tuberculosis H37Rv mc2 6206 assessed as inhibition of bacterial growth by resazurin dye based assay; assay type: functional
[13] = test system: Mycobacterium tuberculosis; assay: Antimycobacterial activity against Mycobacterium tuberculosis Rv0678; assay type: functional

CCc1nc2ccc(Cl)cn2c1C(=O)NCc1ccc(N2CCC(c3ccc(OC(F)(F)F)cc3)CC2)cc1 [TELACEBEC]
IC50 [1]: 100 nM
inhibition [2]: 60%
MIC [3]: 1.5 nM

FC(F)(F)c1ccc(Oc2ccc(Nc3ncnc4ccccc34)cc2)cc1
bioavailability [4]: 58%
IC50 [5]: 2800 nM
MIC [6]: ≤ 1 µM
half-life [7]: 2.67 days

Fc1ccc2c(NCCc3ccc(OC(F)(F)F)cc3)ncnc2c1
IC50 [8]: 7.6 µM
IC50 [9]: 200 nM

CC(C)=CCC/C(C)=C/CC/C(C)=C/Cc1c(C)[nH]c2ccccc2c1=O [AURACHIN D]
MIC [10]: > 100 µg/mL
inhibition [2]: 60%
MIC [3]: > 100 µg/mL

CC(C)(C)c1ccc(CCNc2ncnc3ccsc23)cc1
IC50 [8]: 5.8 µM
IC50 [9]: 8500 nM

NC(=O)NC(=O)c1nc(-c2cc3ccccc3o2)c(N)nc1N
MIC [11]: 4 µM (≈ 1.25 µg/mL)
MIC [12]: 9 µM (≈ 2.81 µg/mL)
MIC [13]: 12 µM (≈ 3.75 µg/mL)

CC(C)(C)c1ccc(CCNc2ncnc3ccccc23)cc1
IC50 [8]: 5.8 µM
IC50 [9]: 100 nM
